A short description of data set [1]: maximally tolerated dose in mice, ip, P388 regimen (Table A). It is filed as in vivo, mouse. Particulars: mouse, in vivo, ip; maximally tolerated dose for B6D2F female mice, ipqDxs regimen (Days 1 through 5). The protocol:
(§1) 10^6 P388 leukemia cells are inoculated ip in B6D2F1 mice. Twenty-four hours later, if the tumor inoculum proves to be free of bacterial contamination (as determined by 24 hours incubation in thioglycollate broth), animals are randomized into groups of 6 and housed in shoebox cages. The compound to be evaluated is dissolved in a minimal volume of either N,N-dimethylacetamide (DMA) or 95% ethanol (depending upon solubility). An equal volume of saline is added; if the drug comes out of solution an equal volume of polyethoxylated castor oil is added and then saline qs to a concentration such that the desired dose is delivered in 0.5 ml. The final concentration of DMA, ethanol and polyethoxylated castor oil is […]. Dilutions for lower doses are made with saline so there is a decreasing proportion of organic solvents in the vehicle with decreasing dosage. These vehicles provide soluble formulations (or suspensions). Fomulations are prepared immediately prior to injection. The compound is administered ip on Days 1 through 5 (i.e. treatment is initiated 24 hrs after tumor inoculation). Each experiment includes three groups of 6 animals as untreated controls and animals treated with a positive control, cisplatin, at two dose levels. Animals are weighed as a group on Days 1, 5 and 9 and average weight change (Δwt.) is used as a reflection of toxicity. Each experiment also includes an inoculum titration--groups of 8 mice inoculated ip with 10^5 to […] P388 leukemia cells. The titration is used to calculate cell kill achieved by treatment with drugs. Animals are monitored daily for mortality and experiments are terminated after 45 days. The endpoint is median survival time (MST) and increase in lifespan (ILS) which is the percentage of increase in MST relative to untreated controls. Untreated controls inoculated ip with 10^6 P388 leukemia cells generally survive for a median of 9 to 11 days. A drug is considered active if it produces ≥25 percent ILS.
(§2) ^(a) maximally tolerated dose for B6D2F female mice on an ipqDxs

The test system of another data set is P388 leukemia. The data set can be described thus: in vivo ip P388 lymphocytic leukemia model. On the set-up: species or system B6D2F1 mice. Particulars: maximum increase in lifespan, mice bearing ip P388 leukemia; slashes = separate experiments; ip Days 1 through 5; active if ≥25 percent. The protocol:
This tumor system is widely accepted as an antitumor agent screening tool because it is sensitive to virtually all of the clinically active antineoplastic agents; quantitative and reproducible; amenable for large-scale screening; and predictive for activity in other animal tumor models.
as §1, with “These vehicles provide soluble formulations (or suspensions).” left out, “controls.” for “controls. Untreated controls inoculated ip with 10^6 P388 leukemia cells generally survive for a median of 9 to 11 days. A drug is considered active if it produces ≥25 percent ILS.”

Data set [2] concerns B6D2F female mice. Nature of the data set: maximally tolerated dose in mice, ip, P388 regimen (Table A). Type of data set: in vivo, mouse. Particulars: maximally tolerated dose for B6D2F female mice, ipqDxs regimen (Days 1 through 5). The protocol:
as §1, §2

The subject of another data set is B6D2F1 mice. The data set can be described thus: maximally tolerated dose in mice, ip qD × 10, B16 (Table C). It is filed as in vivo, mouse. The conditions noted are these: maximally tolerated dose for B6D2F1 mice. The procedure:
(§3) In this system, groups of eight B6D2F1 mice are inoculated ip with 0.5 ml of a 10% (w:v) brei of B15 melanoma prepared from pooled sc tumors excised at 14-21 days from […] donor mice. Daily treatment is begun 24 hours after tumor implantation and is continued daily for ten (10) days. The route of drug administration is ip. The mice are monitored daily for survival for sixty (60) days. Antitumor activity is assessed by prolongation of median survival time. An ILS of ≥25% indicates activity in this tumor model.
^(b) maximally tolerated dose for B6D2F1 mice on an ip qD .times

Another data set relates to B16 melanoma. The data set can be described thus: in vivo ip B16 melanoma assay. On the set-up: species or system B6D2F1 mice. The conditions noted are these: maximum increase in lifespan, mice bearing ip B16 melanoma; slash = separate experiments; ip daily for ten days; active if ≥25%. The protocol: as §3
In data set [3] the test system is M5076 reticulum cell sarcoma. Nature of the data set: intraperitoneally implanted M5076 reticulum cell sarcoma in mice. It is filed as in vivo, B6D2F female mice. The conditions noted are these: maximum increase in lifespan, mice bearing ip M5076; ip daily for ten days; active if ≥25% ILS. The protocol: (§4) Another chemosensitive tumor model is intraperitoneally (ip) implanted M5076 reticulum cell sarcoma in mice. In this system B6D2F female mice are inoculated with 0.5 ml of a 10 percent (w:v) brei of M5076 prepared from pooled subcutaneous (sc) tumors excised at about 21 days from C57B1/6 donors. Drugs are administered ip. Daily treatment is begun 24 hours after implantation and is continued for ten days. The treatment regimen for M5076 is more prolonged than for P388 because of the slower growth rate and longer control survival time of the M5076 tumor. A drug is considered active in this tumor model if it produces ≥25% ILS.

In data set [4] the test system is B6D2F female mice. The data set can be described thus: maximally tolerated dose in mice, ip qD × 10, M5076 (Table B). It is filed as in vivo, mouse. Particulars: maximally tolerated dose for B6D2F female mice. The protocol: as §4
^(b) maximally tolerated dose for B6D2F female mice on an ip qD

“And” between values parts separate entries of the source, which are not always exact repeats. Equal values may be shown once.

As for `c1ccc(P(CCP(CCP(c2ccccc2)c2ccccc2)CCP(c2ccccc2)c2ccccc2)c2ccccc2)cc1` [Compound 7, tris(diphenylphosphinoethyl)phosphine], in data set [1], the MTD came out at 64 mg/kg. In addition, in the data set on P388 leukemia, the “ILS (max)” value is 35% and 30%.

As to “μ-[1,1,4,7,10,10-Hexaphenyl-1,4,7,10-tetraphosphodecane]tetrakis(chlorogold) [Compound 3]”, the MTD in the data set on B6D2F female mice [2] is on record as 12 mg/kg; in the data set with B6D2F1 mice, 6 mg/kg; in the data set on B6D2F female mice [4], 8 mg/kg. In addition, the ILS in the data set with B16 melanoma was 30% and 51%. Besides, the “ILS (MAX)” value in data set [3] worked out at 96%.

With “μ-[1,1,4,7,10,10-Hexaphenyl-1,4,7,10-tetraphosphodecane]tetrakis(1-thio- β-D-glucopyranosato-S)gold [Compound 4]”, in the data set with B6D2F female mice [2], the MTD is reported as 8 mg/kg. In the data set on P388 leukemia, the “ILS (max)” value is 100% and 55%.

“μ-[1,1,1-Tris(diphenylphosphinomethyl)ethane]tris(chlorogold) [Compound 5]” had an MTD in the data set with B6D2F female mice [2] of 20 mg/kg. Also, the “ILS (max)” value in the data set on P388 leukemia is 40% and 30%.

Consider `c1ccc(P(CCP(c2ccccc2)c2ccccc2)CCP(c2ccccc2)c2ccccc2)cc1` [Compound 6, bis(2-diphenylphosphinoethyl)phenylphosphine], for which the MTD in data set [1] came to 32 mg/kg. In the data set on P388 leukemia, the “ILS (max)” value was 80% and 50%.

“μ-[Tris(2-diphenylphosphinoethyl)phosphine]tetrakis(chlorogold) [Compound 2]”: the MTD in the data set on B6D2F female mice [2] is given as 8 mg/kg. Moreover, the “ILS (max)” value in the data set with P388 leukemia was 45%.

Regarding `c1ccc(P(CCP(CCP(c2ccccc2)c2ccccc2)c2ccccc2)CCP(c2ccccc2)c2ccccc2)cc1` (stereo not drawn) [Compound 8, 1,1,4,7,10,10-hexaphenyl-1,4,7,10-tetraphosphodecane], the maximal tolerated dose (MTD) in data set [1] was 64 mg/kg. In the data set with P388 leukemia, the “ILS (max)” value is 25% and 40%.

“μ-[Bis(2-diphenylphosphinoethyl)phenylphosphine]tris(chlorogold) [Compound 1]” gave an MTD in the data set with B6D2F female mice [2] of 8 mg/kg. Further, the “ILS (max)” value in the data set on P388 leukemia was 30% and 40%.

`CC(CP(c1ccccc1)c1ccccc1)(CP(c1ccccc1)c1ccccc1)CP(c1ccccc1)c1ccccc1` [Compound 9, μ-[1,1,1-Tris(diphenylphosphinomethyl)ethane]]: the MTD in data set [1] turned out to be 128 mg/kg. The “ILS (max)” value in the data set with P388 leukemia was 45% and 25%.

These data come from patent US4698422A, “Triphos and tetraphos gold compounds and ligands” (SmithKline Beckman Corporation, priority 1986, dated 1987).
